# Assay results reported in US10774071B2, “PD-1/PD-L1 inhibitors” (Gilead Sciences, Inc., priority 2018, dated 2020).
# Experiments:
# PD-1/PD-L1 = PD-1/PD-L1 (Homo sapiens (Human), UniProt Q9NZQ7); test: PD-1/PD-L1 biochemical protein-protein interaction assay (ALPHA); format: binding; conditions: 0.3 nM His tagged PD-L1, 2.5 nM biotinylated Fc-PD-1, Table 3B, read-out: IC50 PD-L1-PD1
# PD-L1 = PD-L1 (Homo sapiens (Human), UniProt Q9NZQ7); test: PD-L1/PD-L1 dimerization biochemical protein-protein interaction assay (ALPHA); format: binding; conditions: 0.5 nM His tagged PD-L1 and 0.5 nM FLAG tagged PD-L1, Table 4B, read-out: AC50 PDL1 Dimer 1 nM
# Chain of PD-L1 (Q9NZQ7 19-238): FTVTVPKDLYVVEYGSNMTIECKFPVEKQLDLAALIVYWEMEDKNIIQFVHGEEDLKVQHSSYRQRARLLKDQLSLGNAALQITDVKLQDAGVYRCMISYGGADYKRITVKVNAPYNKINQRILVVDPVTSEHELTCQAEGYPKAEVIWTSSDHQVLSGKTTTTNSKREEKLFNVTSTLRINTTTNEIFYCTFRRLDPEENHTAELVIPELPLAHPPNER
# Chain of PD-L1 (Q9NZQ7 19-238): as above
# Chain of PD-1/PD-L1 (Q9NZQ7 19-238): as above
Compound,IC50 (PD-1/PD-L1) [nM],AC50 (PD-L1) [nM]
COc1nc(O[C@H]2CCc3c(-c4cccc(-c5cc(C)c(CN6C[C@@H]7[C@H](C6)[C@H]7C(=O)O)c(OC)n5)c4Cl)cccc32)c(Cl)cc1CNC[C@@H]1CCC(=O)N1 [B-124],0.084,78.5
COc1nc(O[C@H]2CCc3c(-c4cccc(-c5cc(C)c(CN6C[C@@H]7C[C@]7(C(=O)O)C6)c(OC)n5)c4Cl)cccc32)c(Cl)cc1CNC[C@@H]1CCC(=O)N1 [B-132],0.266,301
COc1nc(-c2cccc(-c3cccc4c3CC[C@@H]4Oc3nc(OC)c(CN4CC5(CC5)C[C@H]4C(=O)O)cc3C(F)(F)F)c2Cl)ccc1CNC[C@@H]1CCC(=O)N1 [B-144],0.064,8.98
COc1nc(-c2cccc(-c3cccc4c3CC[C@@H]4Oc3nc(OC)c(CN4CC5CC4(C(=O)O)C5)cc3C(F)(F)F)c2Cl)ccc1CNC[C@@H]1CCC(=O)N1 [B-145],0.064,5.12
COc1nc(-c2cccc(-c3cccc4c3CC[C@@H]4Oc3nc4c(nc3Cl)c(CN3CC5(CNC(=O)C5)C3)nn4C)c2Cl)ccc1CNC[C@@H]1CCC(=O)N1 [B-146],0.41,297
COc1nc(-c2cccc(-c3cccc4c3CC[C@@H]4Oc3nc4c(nc3Cl)c(CNC[C@@H]3CCC(=O)N3)nn4C)c2Cl)ccc1CNC[C@@H]1CCC(=O)N1 [B-147],0.351,178
COc1nc(-c2cccc(-c3cccc4c3CC[C@@H]4Oc3nc(OC)c(CN4CC(C(=O)O)C4)nc3C)c2Cl)ccc1CNC[C@@H]1CCC(=O)N1 [B-148],0.064,43.2
COc1nc(-c2cccc(-c3cccc4c3CC[C@@H]4Oc3nc(OC)c(CN4CC[C@@H](C(=O)O)C4)nc3C)c2Cl)ccc1CNC[C@@H]1CCC(=O)N1 [B-150],0.064,65.1
COc1nc(-c2cccc(-c3cccc4c3CC[C@@H]4Oc3nc(OC)c(CNC[C@@H]4CCC(=O)N4)nc3C)c2Cl)ccc1CNC[C@@H]1CCC(=O)N1 [B-151],0.072,66.2
COc1nc(-c2cccc(-c3cccc4c3CC[C@@H]4Oc3nc(OC)c(CN4CC(C(=O)O)C4)nc3Cl)c2Cl)ccc1CNC[C@@H]1CCC(=O)N1 [B-152],0.064,12.7
COc1nc(-c2cccc(-c3cccc4c3CC[C@@H]4Oc3nc(OC)c(CN4CC5(C(=O)O)CCC4CC5)nc3Cl)c2Cl)ccc1CNC[C@@H]1CCC(=O)N1 [B-153],0.064,19
COc1nc(-c2cccc(-c3cccc4c3CC[C@@H]4Oc3nc(OC)c(CN4CC[C@@H](C(=O)O)C4)nc3Cl)c2Cl)ccc1CNC[C@@H]1CCC(=O)N1 [B-154],0.064,31.5
COc1nc(-c2cccc(-c3cccc4c3CC[C@@H]4Oc3nc(OC)c(CNC[C@@H]4CCC(=O)N4)nc3Cl)c2Cl)ccc1CNC[C@@H]1CCC(=O)N1 [B-155],0.22,102
COc1nc(-c2cccc(-c3cccc4c3CC[C@@H]4Oc3cnc(CN4CC[C@@H](C(=O)O)C4)c(OC)n3)c2Cl)ccc1CNC[C@@H]1CCC(=O)N1 [B-156],0.076,324
COC(=O)[C@@H]1CCN(Cc2ncc(O[C@H]3CCc4c(-c5cccc(-c6ccc(CNC[C@@H]7CCC(=O)N7)c(OC)n6)c5Cl)cccc43)nc2OC)C1 [B-157],0.195,1420
COc1nc(-c2cccc(-c3cccc4c3CC[C@@H]4Oc3nc(OC)c(CN4CCC(C(=O)N=S(C)(N)=O)CC4)cc3Cl)c2Cl)ccc1CNC[C@@H]1CCC(=O)N1 (stereo partly drawn) [B-158],0.064,26.9
COc1nc(-c2cccc(-c3cccc4c3CC[C@@H]4Oc3nc(OC)c(CN4CC(C(=O)N=S(C)(=O)NC(C)=O)C4)cc3Cl)c2Cl)ccc1CNC[C@@H]1CCC(=O)N1 (stereo partly drawn) [B-159],0.064,24.9
COc1nc(-c2cccc(-c3cccc4c3CC[C@@H]4Oc3nc(OC)c(CN4CC[C@@H](C(=O)N=S(C)(=O)N(CC(F)(F)F)CC(F)(F)F)C4)cc3Cl)c2Cl)ccc1CNC[C@@H]1CCC(=O)N1 (stereo partly drawn) [B-160],0.54,309
COc1nc(-c2cccc(-c3cccc4c3CC[C@@H]4Oc3nc(OC)c(CN4CC[C@@H](C(=O)N=S(C)(=O)NCC(F)(F)F)C4)cc3Cl)c2Cl)ccc1CNC[C@@H]1CCC(=O)N1 (stereo partly drawn) [B-161],0.073,41.2
COc1nc(-c2cccc(-c3cccc4c3CC[C@@H]4Oc3nc(OC)c(CN4CC[C@@H](C(=O)N=S(C)(=O)NC(=O)C(F)(F)F)C4)cc3Cl)c2Cl)ccc1CNC[C@@H]1CCC(=O)N1 (stereo partly drawn) [B-162],0.082,134
COc1nc(-c2cccc(-c3cccc4c3CC[C@@H]4Oc3nc(OC)c(CN4CC[C@@H](C(=O)N=S(C)(=O)NC(C)=O)C4)cc3Cl)c2Cl)ccc1CNC[C@@H]1CCC(=O)N1 (stereo partly drawn) [B-163],0.064,39.1
COc1nc(-c2cccc(-c3cccc4c3CC[C@@H]4Oc3nc(OC)c(CN4CC[C@@H](C(=O)N=S(C)(N)=O)C4)cc3Cl)c2Cl)ccc1CNC[C@@H]1CCC(=O)N1 (stereo partly drawn) [B-164],0.27,66.9
COc1cc(O[C@H]2CCc3c(-c4cccc(-c5ccc(CNC[C@@H]6CCC(=O)N6)c(OC)n5)c4Cl)cccc32)c(C(F)(F)F)cc1CN1CC[C@H](C(=O)O)C1 [B-165],0.064,24.6

# More lines, in order of falling IC50 (PD-1/PD-L1), values ahead:
IC50 (PD-1/PD-L1) [nM],AC50 (PD-L1) [nM],Compound
0.064,18.2,COc1nc(-c2cccc(-c3cccc4c3CC[C@@H]4Oc3nc(OC)c(C(C)NCCC(=O)O)cc3C(F)(F)F)c2Cl)ccc1CNC[C@@H]1CCC(=O)N1 (stereo partly drawn) [B-120]
0.064,1.62,COc1cc(-c2cccc(-c3cccc4c3CC[C@@H]4Oc3nc(OC)c(CNC(C)(C)C(=O)O)cc3C(F)(F)F)c2Cl)ccc1CNC[C@@H]1CCC(=O)N1 [B-121]
0.064,2.65,COc1cc(-c2cccc(-c3cccc4c3CC[C@@H]4Oc3nc(OC)c(CNC4(C(=O)O)CC4)cc3C(F)(F)F)c2Cl)ccc1CNC[C@@H]1CCC(=O)N1 [B-122]
0.064,133,COc1nc(O[C@H]2CCc3c(-c4cccc(-c5cc(C)c(CN6CC(C(=O)O)C7(CC7)C6)c(OC)n5)c4Cl)cccc32)c(Cl)cc1CNC[C@@H]1CCC(=O)N1 (stereo partly drawn) [B-123]
0.064,6.79,COc1nc(O[C@H]2CCc3c(-c4cccc(-c5ccc(CNC[C@@H]6CCC(=O)N6)c(OCC#N)n5)c4Cl)cccc32)c(C(F)(F)F)cc1CNC1(C(=O)O)CC1 [B-125]
0.064,3.35,COc1nc(O[C@H]2CCc3c(-c4cccc(-c5ccc(CNC[C@@H]6CCC(=O)N6)c(OCC#N)n5)c4Cl)cccc32)c(C(F)(F)F)cc1CN1CC2(C(=O)O)CCC1CC2 [B-126]
0.064,5.46,COc1nc(O[C@H]2CCc3c(-c4cccc(-c5ccc(CNC[C@@H]6CCC(=O)N6)c(OCC#N)n5)c4Cl)cccc32)c(C(F)(F)F)cc1CN1CC[C@@H](C(=O)O)C1 [B-127]
0.064,13.5,COc1cc(-c2cccc(-c3cccc4c3CC[C@@H]4Oc3nc(OC)c(CNC4(C(=O)O)CC4)cc3Cl)c2Cl)cc(F)c1CNC[C@@H]1CCC(=O)N1 [B-128]
0.064,16.5,COc1cc(-c2cccc(-c3cccc4c3CC[C@@H]4Oc3nc(OC)c(CN4CC5(C(=O)O)CCC4CC5)cc3Cl)c2Cl)cc(F)c1CNC[C@@H]1CCC(=O)N1 [B-129]
0.064,4.87,COc1cc(-c2cccc(-c3cccc4c3CC[C@@H]4Oc3nc(OC)c(CN4CC(C(=O)O)C4)cc3Cl)c2Cl)cc(F)c1CNC[C@@H]1CCC(=O)N1 [B-130]
0.064,10.5,COc1cc(-c2cccc(-c3cccc4c3CC[C@@H]4Oc3nc(OC)c(CN4CC[C@@H](C(=O)O)C4)cc3Cl)c2Cl)cc(F)c1CNC[C@@H]1CCC(=O)N1 [B-131]
0.064,99.1,COc1nc(O[C@H]2CCc3c(-c4cccc(-c5cc(C)c(CN6CC[C@@H](C(=O)O)C6)c(OC)n5)c4Cl)cccc32)c(Cl)cc1CNC[C@@H]1CCC(=O)N1 [B-133]
0.064,0.727,COc1nc(-c2cccc(-c3cccc4c3CC[C@@H]4Oc3nc(OC)c(CN4CC5CCC4(C(=O)O)CC5)cc3C(F)(F)F)c2Cl)ccc1CNC[C@@H]1CCC(=O)N1 [B-134]
0.064,2.76,COc1nc(-c2cccc(-c3cccc4c3CC[C@@H]4Oc3nc(OC)c(CN4CCCC[C@@]4(C)C(=O)O)cc3C(F)(F)F)c2Cl)ccc1CNC[C@@H]1CCC(=O)N1 [B-135]
0.064,11,COc1nc(-c2cccc(-c3cccc4c3CC[C@@H]4Oc3nc(OC)c(CN4[C@@H]5C[C@@H]5C[C@H]4C(=O)O)cc3C(F)(F)F)c2Cl)ccc1CNC[C@@H]1CCC(=O)N1 [B-136]
0.064,6.19,COc1nc(-c2cccc(-c3cccc4c3CC[C@@H]4Oc3nc(OC)c(CN4[C@H](C(=O)O)C[C@@H]5C[C@@H]54)cc3C(F)(F)F)c2Cl)ccc1CNC[C@@H]1CCC(=O)N1 [B-137]
0.064,11.6,COc1nc(-c2cccc(-c3cccc4c3CC[C@@H]4Oc3nc(OC)c(CN4C[C@@H]5C[C@@H]5[C@H]4C(=O)O)cc3C(F)(F)F)c2Cl)ccc1CNC[C@@H]1CCC(=O)N1 [B-138]
0.064,10.2,COc1nc(-c2cccc(-c3cccc4c3CC[C@@H]4Oc3nc(OC)c(CNC4(C(=O)O)CC5CCC4C5)cc3Cl)c2Cl)ccc1CNC[C@@H]1CCC(=O)N1 (stereo partly drawn) [B-139]
0.064,2.28,COc1cc(-c2cccc(-c3cccc4c3CC[C@@H]4Oc3nc(OC)c(CN4CC5(C(=O)O)CCC4CC5)cc3C(F)(F)F)c2Cl)ccc1CNC[C@@H]1CCC(=O)N1 [B-140]
0.064,5.83,COc1cc(-c2cccc(-c3cccc4c3CC[C@@H]4Oc3nc(OC)c(CN4CC(C)(C(=O)O)C4)cc3C(F)(F)F)c2Cl)ccc1CNC[C@@H]1CCC(=O)N1 [B-141]
0.064,38.9,COc1nc(O[C@H]2CCc3c(-c4cccc(-c5cc(F)c(CNC[C@@H]6CCC(=O)N6)c(OC)n5)c4Cl)cccc32)c(Cl)cc1CN1CC(C(=O)O)C1 [B-142]
0.064,42.1,COc1nc(O[C@H]2CCc3c(-c4cccc(-c5ccc(CNC[C@@H]6CCC(=O)N6)c(OC)c5F)c4Cl)cccc32)c(Cl)cc1CN1CC[C@@H](C(=O)O)C1 [B-143]
